Reference: patent US20250314644A1, “METHODS COMPRISING DETECTION OF ADP-HEPTOSE” (CHILDREN'S HOSPITAL MEDICAL CENTER, priority 2023, published 2025)

Experiments:
Dnmt3a^−/− HSCs = test: ADP-heptose treatment of low-dose irradiated chimeric mice: donor HSC number in BM, EdU proliferation, secondary transplant; type: in vivo, mouse
Text: To model pre-leukemic clonal hematopoiesis, chimeric mice were generated as aas follows. Briefly, mixture of 1×10^6 whole bone marrow cells (WBM) were obtained from Poly (I:C) treated wild-type (Dnmt3a^+/+; MxCre^+, called Dnmt3a^WT) or mutant mice (Dnmt3a^f/f; MxCre^+, called Dnmt3a^KO) or double mutant mice (Dnmt3a^f/f; MxCre^+; Alpk1^KO, called Dnmt3a^KO; Alpk1^KO) (CD45.2^+), and transplanted into low-dose (2.5 Gy) irradiated recipient mice (CD45.1^+; 6-10 weeks of age). 8 weeks post-transplant, chimeric mice were treated with either water (H2O) or DSS (2.5%) for 1 week, and allowed to recover for 1 more week on water after which flow cytometry was performed on BM. In separate experiment, chimeric mice were pre-treated with broad spectrum antibiotics (ABX) for 4 weeks, and then subjected to DSS for 1 week after which flow cytometry performed on BM. In a separate set of experiment, chimeric mice were treated with either H2O or ADP-heptose (0.5 mg/kg) for 2 weeks, and flow cytometry performed after 2 more weeks on BM. In all the experiments, secondary transplantation was performed by purifying donor HSCs (CD45.2^+Lin^−Sca-1^+c-Kit^+Flk2^−CD150^+CD48^−) and transplanting 100 HSCs with 200,000 helper WBM cells (CD45.1+) into lethally irradiated (8 Gy) recipient mice (CD45.1^+), and donor chimerism in PB examined by flow cytometry.

healthy donor cells = test: Immunoblot of NF-κB activation in CD34+ HSPCs; type: cell-based, human
Experimental: (§1) Human CD34+ and MDS patient cells were maintained in StemSpan Serum-Free Expansion Media (Cat no. #09650, Stemcell Technologies) supplemented with 10 ng/ml of recombinant human stem cell factor (SCF) (Cat no. 300-07-50UG, PeproTech), recombinant human thrombopoietin (TPO) (Cat no. 300-18-50UG, PeproTech), recombinant human FLT3 ligand (FLT3L) (Cat no. 300-19-50UG, PeproTech), recombinant human interleukin-3 (IL-3) (Cat no. 200-03-50UG, PeproTech), and recombinant human interleukin-6 (IL-6) (Cat no. 200-06-50UG, PeproTech), as previously described. Human CD34+ cells from healthy individuals were obtained from the Yale Cooperative Center of Excellence in Hematology (YCCEH). […]
(§2) Protein concentration was evaluated by bicinchoninic acid (BCA) assay (Pierce, Cat #23225). SDS sample buffer was added to the lysates and the proteins were separated by SDS-polyacrylamide gel electrophoresis, transferred to PVDF or nitrocellulose membranes (BIO-RAD, Cat #1620112), and analyzed by immunoblotting. […] Membranes were visualized using ECL Western Blotting Substrate (Pierce, #32106) or SuperSignal West Femto Substrate (Thermo Scientific, #34096), imaged on a BIO-RAD ChemiDoc Touch Imaging system and analyzed with Image lab software 6.0.1 (Biorad) or Image J (22930834).

MDS CD34+ HSPCs = test: Immunoblot of NF-κB activation in CD34+ HSPCs; type: cell-based, human
Experimental: as §1, §2

[1] = test system: Dnmt3a^−/−; Alpk1^−/− HSPCs; test: NF-κB activation in vitro (immunoblot); type: cell-based, mouse

Structure (SMILES): Nc1ncnc2c1ncn2[C@@H]1O[C@H](COP(=O)(O)OP(=O)(O)O[C@@H]2O[C@H]([C@H](O)CO)[C@@H](O)[C@H](O)[C@@H]2O)[C@@H](O)[C@H]1O [ADP-heptose, ADP-D-glycero-β-D-manno-heptose]
- expansion of Dnmt3a^−/− HSCs in BM (Dnmt3a^−/− HSCs; ADP-heptose 0.5 mg/kg for 2 weeks): rapid and significant expansion
- proliferation of HSCs in vivo (EdU) (Dnmt3a^−/− HSCs; Dnmt3a^−/− HSCs, within 2 weeks): significant proliferation
- self-renewal in secondary recipient mice (Dnmt3a^−/− HSCs; secondary transplant of donor HSCs): sustained self-renewal
- TIFA-dependent activation of NF-κB (phosphorylated IKKα/β and RelA) (healthy donor cells): not in healthy donor cells
- TIFA-dependent activation of NF-κB (phosphorylated IKKα/β and RelA) (MDS CD34+ HSPCs): able to induce TIFA-dependent activation of NF-κB
- NF-κB activation upon ADP-heptose stimulation [1]: unable to activate NF-κB
